Measurements as given in PubChem BioAssay (NCI).
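Interpolation was linear, between the two tested concentrations surrounding the appropriate level; five concentrations were tested over 48 hours in 96-well plates. GI50 = concentration required for 50% inhibition of growth. TGI marks complete inhibition of growth.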 Where a SMILES comes first, the peptide text is derived from it. [ ]: non-standard residue; d: D form. Phe(F5) = N[CH](Cc1c(F)c(F)c(F)c(F)c1F)C(=O)O

Columns and labels:
Experiment in all cases: growth of human tumour cells (NCI), 48 h
KM12 colon = test system: KM12 colon
DU-145 prostate = test system: DU-145 prostate
T-47D breast = test system: T-47D breast
U251 CNS = test system: U251 CNS
SK-MEL-5 melanoma = test system: SK-MEL-5 melanoma
HS 578T breast = test system: HS 578T breast
786-0 renal = test system: 786-0 renal
NCI-H522 lung = test system: NCI-H522 lung
UACC-257 melanoma = test system: UACC-257 melanoma
MALME-3M melanoma = test system: MALME-3M melanoma

Compound | GI50 (KM12 colon) [nM] | TGI (KM12 colon) [µM] | GI50 (DU-145 prostate) [µM] | TGI (DU-145 prostate) [µM] | GI50 (T-47D breast) [µM] | TGI (T-47D breast) [µM] | GI50 (U251 CNS) [nM] | TGI (U251 CNS) [µM] | GI50 (SK-MEL-5 melanoma) [µM] | TGI (SK-MEL-5 melanoma) [µM] | GI50 (HS 578T breast) [µM] | TGI (HS 578T breast) [µM] | GI50 (786-0 renal) [µM] | TGI (786-0 renal) [µM] | GI50 (NCI-H522 lung) [µM] | TGI (NCI-H522 lung) [µM] | GI50 (UACC-257 melanoma) [µM] | TGI (UACC-257 melanoma) [µM] | TGI (MALME-3M melanoma) [µM] | GI50 (MALME-3M melanoma) [nM]
COc1cc2nc(Cl)nc(Nc3cccc(C(=O)/C=C/c4ccccc4)c3)c2cc1OC | 2450 | > 100 | > 48.8 | > 100 | > 30.3 | > 100 | 2970 | > 38.1 | > 22.8 | > 100 | 4.19 | > 64.1 | 3.05 | 15 | 3.09 | 52.6 | > 31.2 | > 100 | – | –
Nc1ncnc2c1ccn2C1OC2COP(=O)(O)OC2C1O (centres undefined) | – | 16.5 | – | > 100 | – | 55.3 | – | > 100 | – | 1.59 | – | > 31 | – | > 20.9 | – | 1.07 | – | 9.11 | 1.41 | –
CCN(CC)c1ccc(/C=C/c2cc(C)c3ccccc3n2)cc1 | 2310 | 13.2 | 3.43 | 15.3 | 4.46 | > 100 | 2360 | 21.1 | 3.1 | 11.8 | 2.09 | 5.75 | 4.51 | 16.2 | 1.31 | 3.91 | 5.18 | 42.8 | 22.8 | 3390
CC12CCC=CC1CCC1C2CCC2(C)C(c3ccc(=O)oc3)CCC12O (centres undefined) | 134 | 1.45 | 0.0553 | 0.165 | 0.181 | 1.05 | 131 | 0.419 | 0.0453 | 0.238 | 0.0292 | 0.308 | 0.0618 | 0.357 | 0.0398 | 0.283 | 0.255 | 0.994 | 0.204 | 42.3
COC(=O)C(CC(C)C)NC(=O)C(Cc1cnc[nH]1)NC(=O)CNC(=O)C(NC(=O)C(C)NC(=O)C(Cc1c[nH]c2ccccc12)NC(=O)C(CCC(=O)O)NC(=O)C(N)Cc1c(F)c(F)c(F)c(F)c1F)C(C)C (centres undefined) (H-[Phe(F5)]EWAVGHL-OMe; configuration not given here) | > 100000 | > 100 | – | > 12.5 | – | > 12.5 | > 100000 | > 100 | – | > 12.5 | – | > 12.5 | > 100 | > 100 | – | > 12.5 | > 100 | > 100 | > 12.5 | –
COc1cccc(C2=C(c3cn(C)c4ccccc34)C(=O)NC2=O)c1 | 8450 | > 25 | > 25 | > 25 | 6.82 | > 25 | 10900 | > 25 | 4.61 | 10.1 | 4.8 | > 25 | 13.4 | > 25 | 6.35 | 25 | 15.7 | > 25 | > 25 | 14200
Cc1cc(N2CCCCC2)nc(N(CCNc2ccnc3cc(Cl)ccc23)Cc2ccco2)n1 | 2070 | 4.71 | 2.87 | 9.2 | 1.82 | 4.32 | 1730 | 3.19 | 1.68 | 3.07 | 2.34 | 5.52 | 1.66 | 3.07 | 1.61 | 3.52 | 2.35 | 5.79 | 3.65 | 1980
Fc1ccc(-c2nc3n(c2-c2ccncc2)CCS3)cc1 | > 25000 | > 25 | > 25 | > 25 | 13.3 | > 25 | > 25000 | > 25 | > 18 | > 25 | > 25 | > 25 | > 25 | > 25 | > 25 | > 25 | > 25 | > 25 | > 25 | > 25000
COc1cc2c(cc1OC)-c1ccc3cc4c(cc3c1N(CCN1CCCC1)C2)OCO4 | 538 | 1.99 | 0.376 | 2.5 | 0.361 | 2.28 | 563 | 1.9 | 1.48 | 3.09 | 1.53 | 14.7 | 0.477 | 1.92 | 0.217 | 1.43 | 9.81 | 22.2 | 14.2 | 2050
C=C1C(=O)O[C@@H]2C1CC(=O)C(C)CC/C=C(\C)CCC[C@H](C)[C@H]2OC(C)=O (some centres undefined) | 12800 | 29.1 | 15 | 31.7 | 20.4 | 58.5 | 13900 | 28.4 | 11.5 | 23.6 | 15.2 | 36 | 17 | 32.2 | 15.9 | 41.6 | 18.4 | 36.6 | – | –
O=S(=O)(c1ccc(NC(=S)NCc2cccnc2)cc1)N1CCCCC1 | – | – | 6.12 | > 100 | 7.33 | > 100 | 1820 | > 100 | 12.1 | 45.8 | 8.65 | > 100 | > 100 | > 100 | 10.1 | > 100 | 42.6 | > 100 | > 100 | 84900
Nc1nc(/C=C\c2ccc([N+](=O)[O-])o2)nc(N2CCN(c3ccccc3)CC2)n1 | 11500 | 62.9 | 3.9 | 41.4 | 13.5 | 60 | 6060 | 39.7 | 6.14 | 25.1 | 25.3 | 93 | 5.5 | 25.8 | 3.02 | 9.94 | 11.5 | 41.3 | – | –
CN(C)c1ccc2nc3ccc(=[N+](C)C)cc-3oc2c1 | 1180 | > 100 | 5.71 | 49.4 | 0.582 | 6.59 | 725 | 4.8 | 0.47 | 1.65 | 15.8 | 64 | 16.5 | 90.9 | – | – | 0.697 | 3.34 | 4.13 | 1670
